# Measured values: patent US20170355736A1, “MORTALIN PEPTIDES AND ANTIBODIES AND USES THEREOF FOR INHIBITING MORTALIN ACTIVITY AND TREATING A DISEASE ASSOCIATED WITH A PATHOLOGICAL CELL” (Ramot at Tel-Aviv University Ltd., priority 2014, published 2017)
# Assays:
# Purified human C9 = Purified human C9 (Homo sapiens, UniProt P02748); test: Zinc-induced C9 polymerization, SDS-PAGE/Coomassie; format: biochemical
# Procedure: FIGS. 2A-B are Coomassie blue stained gels depicting inhibition of C9 polymerization by mortalin or the isolated mortalin peptides. Purified human C9 ([…]) was mixed for 15 minutes at 37° C. with BSA ([…]) as control (lanes marked as “BSA”), mortalin ([…], lanes marked as “mot”) or mortalin peptides (1 mM, lanes marked by “p” and the indicated peptide numbers) that were freshly dissolved in Tris buffered saline (TBS); and then incubated with 42 μM ZnCl2 for 2 hours at 37° C. The first lane on the left, marked “C9” refers to a positive control of the purified C9 without BSA, without mortalin or without the isolated peptides. Samples were subjected to SDS-PAGE on a 2.5-14% acrylamide gradient gel and stained with Coomassie blue. The bands of poly C9 appearing on the top part of the gel are indicated. FIGS. 2A and 2B represent two independent experiments.
# The effect of the peptides on C9 polymerization—Formation of the complement membrane pores requires that multiple C9 molecules undergo polymerization and generate the doughnut-shape transmembrane complex; thus the effect of the peptides on C9 polymerization was tested. C9 polymerization occurs during C5b-9 generation [Podack and Tschopp, Proc Natl Acad Sci USA. (1982) 79(2):574-8]. […] C9 was mixed with peptides and 42 μM ZnCl2 for 2 hours and the samples were analyzed by SDS-PAGE, on a 2.5-14% acrylamide gradient gel. […]
# K562 cells [1] = test: Complement-dependent cytotoxicity (CDC), antibody + normal human serum, PI inclusion/FACS; format: cell-based; conditions: summary of in vitro effects
# Procedure: K562 cells were either pre-incubated with peptides (60 minutes at 37° C.) and then treated with Rabbit anti-K562 polyclonal antiserum (Ab) and normal human serum (as a source for complement) or treated with Ab and complement in presence of the peptide [Ziporen et al. J. Immunol. (2009) 182: 515-21]. Cell death was measured by PI (Propidium Iodide) inclusion and FACS analysis, after 1 hour treatment at 37° C. The effect of the peptides on complement-dependent cytotoxicity—The next objective was to determine which of the peptides could alter cell death and sensitize cancer cells to complement-dependent cytotoxicity (CDC). Thus, cells were incubated with the peptides prior to antibody and complement treatment (denoted herein as pre-incubation) or treated concomitantly with antibody and complement in the presence of the peptides (denoted herein as without pre-incubation). It should be noted that in cases where the peptide was incubated with the cells prior to addition of the antibody and complement (serum) (noted as “preincubation”) cell cytotoxicity begins as complement independent, and then, upon addition of the antibody and complement can continue as complement dependent. […]
# [2] = system: leukemia and lymphoma cell lines; test: Direct cell killing / direct toxicity (complement independent), overall statement; format: cell-based; design: key: ↑: enhance; ↓: inhibit; ↑↓: effect depends on dose/time; —: no effect; conditions: summary of in vitro effects; complement independent cytotoxicity; cell lines and primary B-CLL cells
# Procedure: The toxic effect of these peptides was tested on 3 leukemia/lymphoma cell lines Raji (FIG. 5), Ramos (FIG. 6) and Z-138 (FIG. 7). The cells were treated for 24 hours with the peptides and cell death was determined by propidium iodide labeling and analysis by flow cytometry.
# In summary, Table 6 below illustrates the relative effects of some of the peptides on mortalin-C9 binding, C9 polymerization, complement-dependent cytotoxicity and complement independent cytotoxicity (direct toxicity).
# mortalin-C9 binding = mortalin-C9 binding (Homo sapiens, UniProt P02748); test: ELISA of mortalin binding to C9 with or without mortalin peptides; design: key: ↑: enhance; ↓: inhibit; ↑↓: effect depends on dose/time; —: no effect; conditions: summary of in vitro effects
# mortalin-C9 binding, sequence (P02748 22-559): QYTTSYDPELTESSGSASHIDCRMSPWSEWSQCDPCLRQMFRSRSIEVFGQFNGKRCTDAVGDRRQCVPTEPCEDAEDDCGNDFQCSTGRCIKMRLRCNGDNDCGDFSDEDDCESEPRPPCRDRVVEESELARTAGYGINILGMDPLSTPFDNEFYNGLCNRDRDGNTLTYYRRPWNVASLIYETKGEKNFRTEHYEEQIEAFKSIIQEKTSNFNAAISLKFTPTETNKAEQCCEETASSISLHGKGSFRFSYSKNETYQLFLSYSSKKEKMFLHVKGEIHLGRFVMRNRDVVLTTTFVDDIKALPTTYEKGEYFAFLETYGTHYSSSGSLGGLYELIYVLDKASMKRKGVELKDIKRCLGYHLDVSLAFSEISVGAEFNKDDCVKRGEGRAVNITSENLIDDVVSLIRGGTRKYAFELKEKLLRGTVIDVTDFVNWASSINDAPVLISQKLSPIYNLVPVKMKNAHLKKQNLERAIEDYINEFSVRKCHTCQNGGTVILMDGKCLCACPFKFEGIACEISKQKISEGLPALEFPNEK
# Procedure: FIG. 1 is a histogram depicting results of ELISA (enzyme-linked immunosorbent assay) which detected binding of mortalin to C9 in the presence or absence of various mortalin peptides. Purified human C9 (0.057 μM) was attached overnight at 4° C. to wells of a 96-wells plate and then the excess of C9 was washed. Following, His-tagged recombinant mortalin (0.007 μM) was added to the wells for 1 hour at 37° C. with or without the designated peptides (each at a concentration of 170 μM), which were dissolved in 1% BSA (bovine serum albumin). Following incubation with the mortalin and peptides the wells were washed, treated for 1 hour at 37° C. with mouse anti-His antibody (diluted 1:1000) followed by 1 hour incubation at room temperature with peroxidase-labeled goat anti-mouse IgG (diluted 1:10,000), developed with O-phenylenediamine (OPD) and analyzed by an ELISA reader at 492 nm. […]
# Methods of detecting the binding between mortalin and C9 are known in the art [Pilzer et al. Int Immunol (2005) 17:1239-1248; Pilzer et al. Int J Cancer (2010). […] After incubation of the C9 and mortalin, the excess of the labeled mortalin and of the peptide is removed by washing the plate, and the amount of labeled mortalin which is bound to the surface-attached C9 protein is determined using an anti-His antibody (e.g., a mouse anti-His antibody). […]
# [3] = system: primary B-CLL leukemia cells; test: Direct cell killing of primary leukemia cell preparations, PI flow cytometry; format: cell-based, human; conditions: peptides with TAT sequence at C-terminal, 20 hours, 50 µM concentration
# Procedure: FIG. 8 is a histogram depicting cell death of B-CLL leukemia cells by mortalin peptides. […] Mortalin peptides numbers 2, 7, 8, 10, 14 and 16 and a scrambled control peptide (PC) were tested. […] Following, the cells were labeled with PI and analyzed by Flow Cytometry. Percent of dead cells (PI positive) was calculated.
# FIG. 9 is a histogram depicting cell death of B-CLL leukemia cells by mortalin peptides. […] Mortalin peptides numbers 2, 7, 8, 10, 14 and 16 and a scrambled control peptide (PC) were tested. […] Following, the cells were labeled with PI and analyzed by Flow Cytometry. Percent of dead cells (PI positive) was calculated.
# FIG. 10 is a histogram depicting cell death of B-CLL leukemia cells by mortalin peptides. […] Following, the cells were labeled with PI and analyzed by Flow Cytometry. Percent of dead cells (PI positive) was calculated.
# FIG. 11 is a histogram depicting cell death of B-CLL leukemia cells and normal mononuclear cells by mortalin peptides. […] Following, the cells were labeled with PI and analyzed by Flow Cytometry. Percent of dead cells (PI positive) was calculated.
# Blood drawing from B-CLL patients was approved by the Helsinki Committee of Rabin Medical Center, Petach Tikvah, Israel. […] The cells were treated for 20 hours with the peptides at […] concentration and cell death was determined by propidium iodide labeling and analysis by flow cytometry. […]
# Raji cells = test: Complement independent cytotoxicity, Annexin V/PI, FACS; format: cell-based, human; conditions: stand-alone treatment, 0.8 mM, 24 hours
# Description: Then, the cells were labeled with Annexin/PI and analyzed by Flow Cytometry. FIG. 3A—a histogram depicting the percent of dead cells (Annexin and PI positive) as calculated. FIGS. 3B-D—representative images of cells in control (FIG. 3B) and peptide-treated groups [FIG. 3C (treated with peptide no. 14) and FIG. 3D (treated with peptide no. 16)] stained by DAPI and observed under a fluorescence microscope.
# (§1) The complement independent cytotoxic effect of the peptides—To address the toxic effect of the peptides as single agents, the present inventor tested the effect of the peptides no. 14 and 16 on K562 and Raji human cancer cells. The cells were incubated with the peptides for 24-48 hours in growth medium and then tested for apoptosis using an Annexin V/PI (Propidium Iodide) staining kit followed by FACS analysis.
# K562 cells [4] = test: as above; format: cell-based, human; conditions: stand-alone treatment, 0.8 mM, 24 hours
# Procedure: Raji or K562 cells were treated without (C) or with 2 mM peptides for 48 hours in their culture medium. Then, the cells were labeled with Annexin/PI and analyzed by Flow Cytometry. FIG. 3A—a histogram depicting the percent of dead cells (Annexin and PI positive) as calculated. FIGS. 3B-D—representative images of cells in control (FIG. 3B) and peptide-treated groups [FIG. 3C (treated with peptide no. 14) and FIG. 3D (treated with peptide no. 16)] stained by DAPI and observed under a fluorescence microscope.
# as §1
# Purified human C9, sequence (P02748 22-559): as above
Molecule,"effect on C9 polymerization (Purified human C9; peptides 1 mM, mortalin 1.4 mM, 42 μM ZnCl2, 2 hours, 37° C., poly C9 band on gel)",C9 polymerization (Purified human C9; summary of in vitro effects),Effect on CDC (K562 cells [1]),Direct toxicity [2],Mortalin-C9 binding (mortalin-C9 binding),cell killing effect on primary leukemia cells [3],"capacity to induce apoptosis, TAT-modified versus native peptide no: 14 (Raji cells)","capacity to induce apoptosis, TAT-modified versus native peptide no: 14 (K562 cells [4])"
"Mortalin: human mortalin protein, member of the HSP70 family (SEQ ID NO: 24), recombinant",completely inhibited C9 polymerization,↓↓↓,↓↓↓,—,,,,
"CSCC[C@H](NC(=O)[C@H](Cc1ccc(O)cc1)NC(=O)[C@H](CC(C)C)NC(=O)[C@H](CCC(=O)O)NC(=O)[C@H](CO)NC(=O)[C@H](CCCCN)NC(=O)[C@H](C)NC(=O)[C@H](CCCCN)NC(=O)[C@H](CCC(=O)O)NC(=O)[C@H](C)NC(=O)[C@H](C)NC(=O)[C@H](CCC(=O)O)NC(=O)[C@H](CCCNC(=N)N)NC(=O)[C@@H](NC(=O)[C@H](CCCNC(=N)N)NC(=O)[C@H](CCC(N)=O)NC(=O)[C@H](CC(C)C)NC(=O)[C@H](C)NC(=O)[C@H](CCSC)NC(=O)[C@@H](N)CC(N)=O)C(C)C)C(=O)NCC(=O)N[C@@H](CCCNC(=N)N)C(=O)N[C@@H](CCCCN)C(=O)N[C@@H](CCCCN)C(=O)N[C@@H](CCCNC(=N)N)C(=O)N[C@@H](CCCNC(=N)N)C(=O)N[C@@H](CCC(N)=O)C(=O)N[C@@H](CCCNC(=N)N)C(=O)N[C@@H](CCCNC(=N)N)C(=O)N[C@@H](CCCNC(=N)N)C(=O)O [Peptide 8, NMALQRVREAAEKAKSEL]",,,,↑ (*)—,—,cell killing effect,,
MVKNAEKYAEEDRYMGRKKRRQRRR (synthetic peptide (TAT modified peptide 14)) [TAT-peptide no: 14],,,,,,,markedly enhanced the capacity of peptide no: 14 to induce apoptosis,markedly enhanced the capacity of peptide no: 14 to induce apoptosis
